Reference: PMC12368987 (2025)
Values belong to the compound of their own block, whether it stands above or below them.

Assays:
[1] = tested on: PFOS_JYP_2 (DNA, aptamer) CTCTCGGGACGACGGGGTAACGGTTTGATCTCCTTCGTGTTCTGTCGTCCC; assay: ThT displacement fluorescence; settings: pH 7.5; 400 nM aptamer, 10 μM thioflavin T; up to 50 μM
[2] = tested on: 16T (upper small loop without 16th thymine) (DNA, aptamer) AACGGTTTGATCTCCTCGTG; assay: ThT displacement fluorescence; settings: pH 7.5; 400 nM aptamer, 10 μM thioflavin T; up to 50 μM
[3] = tested on: PFOS_JYP_3 (DNA, aptamer) CTCTCGGGACGACGGGGGTTGCATCTTTATATGTTTCTTCTCTGTCGTCCC; assay: ThT displacement fluorescence, Hill fit; settings: pH 7.5, RT, 70 min; 400 nM aptamer; 10 μM thioflavin T displaced
[4] = tested on: upper small loop of PFOS_JYP_2 (DNA, aptamer) AACGGTTTGATCTCCTTCGTG; assay: ThT displacement fluorescence, Hill fit; settings: pH 7.5, RT, 70 min; 400 nM aptamer; 10 μM thioflavin T displaced
[5] = tested on: 7T (upper small loop without 7th thymine) (DNA, aptamer) AACGGTTGATCTCCTTCGTG; assay: ThT displacement fluorescence, Hill fit; settings: pH 7.5, RT, 70 min; 400 nM aptamer; 10 μM thioflavin T displaced
[6] = tested on: PFOS_JYP_5 (DNA, aptamer) CTCTCGGGACGACGGCCAGATGGAGCTTTTATTTCCCTTCCTCGTCGTCCC; assay: ThT displacement fluorescence, Hill fit; settings: pH 7.5, RT, 70 min; 400 nM aptamer; 10 μM thioflavin T displaced
[7] = tested on: 15C, 16T (DNA, aptamer) AACGGTTTGATCTCTCGTG; assay: ThT displacement fluorescence, Hill fit; settings: pH 7.5, RT, 70 min; 400 nM aptamer; 10 μM thioflavin T displaced
[8] = tested on: 9G (upper small loop without 9th guanine) (DNA, aptamer) AACGGTTTATCTCCTTCGTG; assay: ThT displacement fluorescence, Hill fit; settings: pH 7.5, RT, 70 min; 400 nM aptamer; 10 μM thioflavin T displaced
[9] = tested on: PFOS_JYP_7 (DNA, aptamer) CTCTCGGGACGACCACCAGGTCTCGTCTTATTGGCTATGTGTTGTCGTCCC; assay: ThT displacement fluorescence, Hill fit; settings: pH 7.5, RT, 70 min; 400 nM aptamer; 10 μM thioflavin T displaced
[10] = tested on: PFOS_JYP_6 (72 nt, qPCR) (DNA, aptamer) GGAGGCTCTCGGGACGACGGCAGCTCAGCATCTTTGTTGCCCCTGACTGTCGTCCCGATGCTGCAATCGTAA; assay: qPCR Ct change of aptamer-gold nanoparticle complex; settings: Mg2+ 2 mM (PBS); 1x PBS, pH 7.5; 100 pmol aptamer; 0-400 pM PFOS
[11] = tested on: 7T, 16T (DNA, aptamer) AACGGTTGATCTCCTCGTG; assay: ThT displacement fluorescence, Hill fit; settings: pH 7.5, RT, 70 min; 400 nM aptamer; 10 μM thioflavin T displaced
[12] = tested on: 11T, 16T (DNA, aptamer) AACGGTTTGACTCCTCGTG; assay: ThT displacement fluorescence, Hill fit; settings: pH 7.5, RT, 70 min; 400 nM aptamer; 10 μM thioflavin T displaced
[13] = tested on: 15C (upper small loop without 15th cytosine) (DNA, aptamer) AACGGTTTGATCTCTTCGTG; assay: ThT displacement fluorescence, Hill fit; settings: pH 7.5, RT, 70 min; 400 nM aptamer; 10 μM thioflavin T displaced
[14] = tested on: PFOS_JYP_2 with flanking region shortened to 4 base pairs (DNA, aptamer) CGACGGGGTAACGGTTTGATCTCCTTCGTGTTCTGTCG; assay: ThT displacement fluorescence; settings: different PFOS concentrations; highest not stated in material
[15] = tested on: 16T (upper small loop without 16th thymine) (DNA, aptamer) AACGGTTTGATCTCCTCGTG; assay: ThT displacement fluorescence, Hill fit; settings: pH 7.5, RT, 70 min; 400 nM aptamer; 10 μM thioflavin T displaced
[16] = tested on: PFOS_JYP_2 (DNA, aptamer) CTCTCGGGACGACGGGGTAACGGTTTGATCTCCTTCGTGTTCTGTCGTCCC; assay: ThT displacement fluorescence, Hill fit; settings: pH 7.5, RT, 70 min; 400 nM aptamer; 10 μM thioflavin T displaced
[17] = tested on: 11T (upper small loop without 11th thymine) (DNA, aptamer) AACGGTTTGACTCCTTCGTG; assay: ThT displacement fluorescence, Hill fit; settings: pH 7.5, RT, 70 min; 400 nM aptamer; 10 μM thioflavin T displaced
[18] = tested on: PFOS_JYP_1 (DNA, aptamer) CTCTCGGGACGACGGGTAGTCTGTGTATGCTCGCAAGCGTGCTGTCGTCCC; assay: ThT displacement fluorescence, Hill fit; settings: pH 7.5, RT, 70 min; 400 nM aptamer; 10 μM thioflavin T displaced
[19] = tested on: PFOS_JYP_6 (DNA, aptamer) CTCTCGGGACGACGGCAGCTCAGCATCTTTGTTGCCCCTGACTGTCGTCCC; assay: ThT displacement fluorescence, Hill fit; settings: pH 7.5, RT, 70 min; 400 nM aptamer; 10 μM thioflavin T displaced
[20] = tested on: 10A, 16T (DNA, aptamer) AACGGTTTGTCTCCTCGTG; assay: ThT displacement fluorescence, Hill fit; settings: pH 7.5, RT, 70 min; 400 nM aptamer; 10 μM thioflavin T displaced
[21] = tested on: PFOS_JYP_2 upper loop, ninth guanine mutated to cytosine (DNA, aptamer) AACGGTTTCATCTCCTTCGTG; assay: ThT displacement fluorescence, Hill fit; settings: pH 7.5, RT, 70 min; 400 nM aptamer; 10 μM thioflavin T displaced
[22] = tested on: 10A (upper small loop without 10th adenine) (DNA, aptamer) AACGGTTTGTCTCCTTCGTG; assay: ThT displacement fluorescence, Hill fit; settings: pH 7.5, RT, 70 min; 400 nM aptamer; 10 μM thioflavin T displaced
[23] = tested on: 9G, 16T (DNA, aptamer) AACGGTTTATCTCCTCGTG; assay: ThT displacement fluorescence, Hill fit; settings: pH 7.5, RT, 70 min; 400 nM aptamer; 10 μM thioflavin T displaced
[24] = tested on: PFOS_JYP_4 (DNA, aptamer) CTCTCGGGACGACGGGGGGCTATTTCTTCATTCTCTGCTGACTGTCGTCCC; assay: ThT displacement fluorescence, Hill fit; settings: pH 7.5, RT, 70 min; 400 nM aptamer; 10 μM thioflavin T displaced

binding [1]: no
Compound: CCCCCCCCS(=O)(=O)O

binding [1]: weak
Compound: O=C(O)C(F)(F)C(F)(F)C(F)(F)C(F)(F)C(F)(F)C(F)(F)C(F)(F)C(F)(F)C(F)(F)F

binding [2]: weak
binding [1]: weak
Compound: O=C(O)C(F)(F)C(F)(F)C(F)(F)C(F)(F)C(F)(F)C(F)(F)C(F)(F)C(F)(F)F

binding [2]: weak
binding [1]: weak
Compound: O=C(O)C(F)(F)C(F)(F)C(F)(F)C(F)(F)C(F)(F)C(F)(F)C(F)(F)F

binding [1]: no
Compound: O=C(O)C(F)(F)C(F)(F)C(F)(F)F

KD [3]: 7.82 ± 0.19 µM
KD [4]: 11.21 ± 0.16 µM
KD [5]: 7.99 ± 0.50 µM
KD [6]: 7.33 ± 0.21 µM
KD [7]: 7.86 ± 0.18 µM
KD [8]: 8.86 ± 0.53 µM
KD [9]: 8.42 ± 0.34 µM
binding [10]: yes
KD [11]: 7.97 ± 0.49 µM
KD [12]: 8.82 ± 0.37 µM
KD [13]: 7.57 ± 0.12 µM
binding [14]: no
KD [15]: 6.77 ± 0.16 µM
KD [16]: 6.76 ± 0.20 µM
KD [17]: 8.60 ± 0.27 µM
KD [18]: 6.93 ± 0.15 µM
KD [19]: 7.69 ± 0.04 µM
KD [20]: 8.19 ± 0.04 µM
KD [21]: 18.23 ± 1.92 µM
KD [22]: 8.30 ± 0.65 µM
KD [23]: 7.35 ± 0.42 µM
KD [24]: 6.87 ± 0.06 µM
Compound: O=S(=O)(O)C(F)(F)C(F)(F)C(F)(F)C(F)(F)C(F)(F)C(F)(F)C(F)(F)C(F)(F)F

binding [2]: weak
binding [1]: weak
Compound: O=S(=O)(O)C(F)(F)C(F)(F)C(F)(F)C(F)(F)C(F)(F)C(F)(F)F

binding [1]: no
Compound: O=S(=O)(O)C(F)(F)C(F)(F)C(F)(F)C(F)(F)F
